The target in the test is T1, PPARalpha (Homo sapiens, UniProt Q07869).
T1 construct: human PPARalpha receptor (amino acids S167-Y468); expressed in transfected cells; host or cells: HEK (human embryo kidney) cells, stably transfected; pcDNA3 vector, CMV promoter
T1 sequence (Q07869 167-468): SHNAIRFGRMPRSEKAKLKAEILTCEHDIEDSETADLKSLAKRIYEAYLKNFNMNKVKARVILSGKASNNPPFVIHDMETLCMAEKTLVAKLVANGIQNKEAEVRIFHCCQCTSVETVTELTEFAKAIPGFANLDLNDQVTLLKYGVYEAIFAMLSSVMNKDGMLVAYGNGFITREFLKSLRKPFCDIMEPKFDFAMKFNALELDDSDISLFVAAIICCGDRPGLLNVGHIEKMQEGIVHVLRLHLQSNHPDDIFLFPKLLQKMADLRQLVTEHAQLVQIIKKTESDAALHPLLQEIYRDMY
The experiment in a line: Cellular PPARalpha assay (stably transfected HEK luciferase reporter cell line). The settings on record: GR-GAL4-humanPPARalpha-LBD. Format: cell-based. The method, then: Determination of EC50 Values of PPAR agonists in the Cellular PPARalpha Assay
The potency of substances which bind to human PPARA and activate in an agonistic manner is analyzed using a stably transfected HEK cell line (HEK =human embryo kidney) which is referred to here as PPARalpha reporter cell line. It contains two genetic elements, a luciferase reporter element (pδM-GAL4-Luc-Zeo) and a PPARalpha fusion protein (GR-GAL4-humanPPARα-LBD) which mediates expression of the luciferase reporter element depending on a PPARalpha ligand. The stably and constitutively expressed fusion protein GR-GAL4-humanPPARalpha-LBD binds in the cell nucleus of the PPARalpha reporter cell line via the GAL4 protein portion to the GAL4 DNA binding motifs 5′-upstream of the luciferase reporter element which is integrated in the genome of the cell line. There is only little expression of the luciferase reporter gene without addition of a PPARalpha ligand if fatty acid-depleted fetal calf serum (cs-FCS) is used in the assay. PPARα ligands bind and activate the PPARα fusion protein and thereby bring about expression of the luciferase reporter gene. The luciferase which is formed can be detected by means of chemiluminescence via an appropriate substrate.
The PPARalpha reporter cell line was prepared in 2 stages. Firstly, the luciferase reporter element was constructed and stably transfected into HEK cells. For this purpose, five binding sites of the yeast transcription factor GAL4 (each 5′-CGGAGTACTGTCCTCCGAG-3′) (SEQ ID No. 1) were cloned in 5′-upstream of a 68 bp-long minimal MMTV promoter (Genbank Accession # V01 175). The minimal MMTV promoter section contains a CCAAT box and a TATA element in order to enable efficient transcription by RNA polymerase 11. The cloning and sequencing of the GAL4-MMTV construct took place in analogy to the description of Sambrook J. et. al. (Molecular cloning, Cold Spring Harbor Laboratory Press, 1989). Then the complete Photinus pyralis gene (Genbank Accession # M15077) was cloned in 3′-downstream of the GAL4-MMTV element. After sequencing, the luceriferase reporter element consisting of five GAL4 binding sites, MMTV promoter and luciferase gene was recloned into a plasmid which confers zeocin resistance in order to obtain the plasmid pδM-GAL4-Luc-Zeo. This vector was transfected into HEK cells in accordance with the statements in Ausubel, F. M. et al. (Current protocols in molecular biology, Vol. 1-3, John Wiley & Sons, Inc., 1995).
In a second step, the PPARalpha fusion protein (GR-GAL4-humanPPARalpha-LBD was introduced into the stable cell clone described. For this purpose, initially the cDNA coding for the N-terminal 76 amino acids of the glucocorticoid receptor (Genbank Accession # P04150) was linked to the cDNA section coding for amino acids 1-147 of the yeast transcription factor GAL4 (Genbank Accession # P04386). The cDNA of the ligand-binding domain of the human PPARalpha receptor (amino acids S167-Y468; Genbank Accession # S74349) was cloned in at the 3′-end of this GR-GAL4 construct. The fusion construct prepared in this way (GR-GAL4-humanPPARalpha-LBD) was recloned into the plasmid pcDNA3 (from Invitrogen) in order to enable constitutive expression therein by the cytomegalovirus promoter. This plasmid was linearized with a restriction endonuclease and stably transfected into the previously described cell clone containing the luciferase reporter element. The finished PPARalpha reporter cell line which contains a luciferase reporter element and constitutively expresses the PPARalpha fusion protein (GR-GAL4-human PPARalpha-LBD) was isolated by selection with zeocin (0.5 mg/ml) and G418 (0.5 mg/ml).
The activity of PPARalpha agonists is determined in a 3-day assay which is described below: […]

Take `CCC(CCO[C@@H]1CCC[C@H](OCc2nc(-c3ccc(F)cc3)oc2C)C1)C(=O)O` (stereo partly drawn) [Example 1, 2-Ethyl-4{(1R,3S)-3-[2-(4-fluorophenyl)-5-methyloxazol-4-ylmethoxy]-cyclohexyloxy}butanoic acid]: the midpoint of the response, the EC50, lay at 41 nM.

`Cc1cccc(-c2nc(CO[C@H]3CCC[C@@H](OCC4(C(=O)O)CC4)C3)c(C)o2)c1` [Example 5, (1R,3S)-1-[3-(5-methyl-2-m-tolyloxazol-4-ylmethoxy)cyclohexyloxymethyl]cyclo-propanecarboxylic acid]: the response was half-maximal at 69 nM (EC50).

Take `COCC(CO[C@@H]1CCC[C@H](OCc2nc(-c3cccc(C)c3)oc2C)C1)C(=O)O` (stereo partly shown) [Example 8, (1R′,3S′)-2R/S-Methoxymethyl-3-[3-(5-methyl-2-m-tolyloxazol-4-ylmethoxy)cyclo-hexyloxy]propionic acid]: the EC50 was found to be 24 nM.

`Cc1cccc(-c2nc(CO[C@H]3CCC[C@@H](OCC(OCc4ccc(C(C)(C)C)cc4)C(=O)O)C3)c(C)o2)c1` (stereo partly drawn) [Example 18, 3-[(1R,3S)-3-(5-Methyl-2-m-tolyloxazol-4-ylmethoxy)cyclohexyloxy]-2-(4-tert-butylbenzyloxy)propanoic acid] returned an EC50 of 1.5 nM.

Take `C#CCOC(CO[C@@H]1CCC[C@H](OCc2nc(-c3cccc(C)c3)oc2C)C1)C(=O)O` (stereo partly drawn) [Example 22, 3-[(1R,3S)-3-(5-Methyl-2-m-tolyloxazol-4-ylmethoxy)cyclohexyloxy]-2-(2-propynyl-oxy)propionic acid]: the midpoint of the response, the EC50, lay at 43 nM.

In the case of `Cc1cccc(-c2nc(CO[C@H]3CCC[C@@H](OCC(OC/C=C/c4ccccc4)C(=O)O)C3)c(C)o2)c1` (stereo partly drawn) [Example 25, 3-[(1R,3S)-3-(5-Methyl-2-m-tolyloxazol-4-ylmethoxy)cyclohexyloxy]-2-(3-phenyl-2-propenyloxy)propionic acid], the EC50 was 6.2 nM.

`COC(CO[C@@H]1CCC[C@H](OCc2nc(-c3ccc4ccccc4c3)oc2C)C1)C(=O)O` (stereo partly drawn) [Example 35, 2-Methoxy-3-{(1R,3S)-3-[5-methyl-2-(3-naphthyl)oxazol-4-ylmethoxy]cyclohexyl-oxy}propionic acid] had an EC50 of 84 nM.

`COC(CO[C@@H]1CCC[C@H](OCc2nc(-c3ccc(C)cc3C)oc2C)C1)C(=O)O` (stereo partly drawn) [Example 36, 2-Methoxy-3-{(1R,3S)-3-[5-methyl-2-(2,4-dimethylphenyl)oxazol-4-ylmethoxy]-cyclohexyloxy}propionic acid]: the EC50 was 14 nM.

Molecule `CCCOC(CO[C@@H]1CCC[C@H](OCc2nc(-c3ccc(C)cc3)oc2C)C1)C(=O)O` (stereo partly drawn) [Example 47, 3-{(1R,3S)-3-[5-Methyl-2-(4-methylphenyl)oxazol-4-ylmethoxy]cyclohexyloxy}-2-propoxypropionic acid] displayed an EC50 of 0.8 nM.

For `CCCOC(CO[C@@H]1CCC[C@H](OCc2nc(-c3cccc(C(F)(F)F)c3)oc2C)C1)C(=O)O` (stereo partly drawn) [Example 52, 3-{(1R,3S)-3-[5-Methyl-2-(3-trifluoromethylphenyl)oxazol-4-ylmethoxy]cyclohexyl-oxy}-2-propoxypropionic acid], it took 22 nM to reach a half-maximal effect (EC50).

For `CCOC(CO[C@@H]1CCC[C@H](OCc2nc(-c3ccc(OC(F)(F)F)cc3)oc2C)C1)C(=O)O` (stereo partly drawn) [Example 60, 2-Ethoxy-3-{(1R,3S)-3-[5-methyl-2-(4-trifluoromethoxyphenyl)oxazol-4-ylmethoxy]-cyclohexyloxy}propionic acid], the EC50 was determined as 26 nM.

Regarding `Cc1ccc(-c2nc(CO[C@H]3CCC[C@@H](OC[C@@H](OCc4ccc(C(F)(F)F)cc4)C(=O)O)C3)c(C)o2)cc1` [Example 81, (R)-3-[(1R,3S)-3-(5-Methyl-2-(4-methylphenyl)oxazol-4-ylmethoxy)cyclohexyloxy]-2-(4-trifluoromethylbenzyloxy)propionic acid], the EC50 was determined as 0.6 nM.

In turn, `Cc1cccc(-c2nc(CO[C@H]3CCC[C@@H](OCC(Cc4cccc(C(F)(F)F)c4)C(=O)O)C3)c(C)o2)c1` (stereo partly drawn) [Example 91, 2-[(1R,3S)-3-(5-Methyl-2-m-tolyloxazol4-ylmethoxy)cyclohexyloxymethyl]-3-(3-trifluoromethylphenyl)propionic acid] displayed an EC50 of 78 nM.

The values are drawn from patent publication US7335671B2, “Arylcycloalkyl-substituted alkanoic acid derivatives, processes for their preparation and their use as pharmaceuticals” (Sanofi-Aventis Deutschland GmbH, priority 2003, dated 2008).
